In patent US20220380338A1, “CYCLOALKYL 3-OXOPIPERAZINE CARBOXAMIDES AND CYCLOHETEROALKYL 3-OXOPIPERAZINE CARBOXAMIDES AS NAV1.8 INHIBITORS” (Merck Sharp & Dohme LLC, priority 2021, published 2022):

molecular target: T1, human NaV1.8 (Homo sapiens, UniProt Q9Y5Y9); assay: Nav1.8 Qube® Assay (automated 384-well patch-clamp, inhibition of sodium current); type: cell-based; settings: human NaV1.8 channels stably expressed in HEK 293 cells, room temperature
T1 construct: expressed in transfected cells
Protocol: Compounds were tested on human NaV1.8 and NaV1.5 channels stably expressed in human embryo kidney (HEK) 293 cells. Sodium current measurements on Qube® were conducted as follows: automated 384-well patch-clamp assays on the Qube® platform (Sophion Biosciences) were used to measure the inhibition of sodium flow through human NaV1.8 and NaV1.5 channels. Whole-cell voltage-clamp recordings were performed in QChips® (Sophion Biosciences) at room temperature. NaV1.8 current measurements on Qube® were obtained as follows: NaV1.8 currents were elicited with a 10 second 1 Hertz (Hz) pulse train from a holding potential of −90 millivolts (mV), delivered to the cells once per minute in the control condition (DMSO only) and after compound addition. The 1 hertz pulse train stimulation consisted of ten test pulses to 10 millivolt (mV) for 20 milliseconds (ms), each of which was followed by a 980 millisecond repolarization to −67 millivolts. At the end of the 10 second pulse train stimulation, a 5 second hyperpolarization step to −100 millivolt (mV) was used to recover NaV1.8 from fast inactivation. The peak currents elicited by the 1st and 10th test pulses were used to determine IC50 values for resting inhibition and inactivated state inhibition. NaV1.5 current measurements on Qube® were obtained as follows: NaV1.5 currents were elicited with a 20 second 3 Hertz pulse train in the control condition (DMSO only) and after compound addition. The pulse train consisted of sixty 20 millisecond test pulses to 0 millivolt from a holding potential of −80 millivolt (mV). The average peak currents elicited by the last 3 test pulses were used to determine IC50 values for NaV1.5 inhibition.
The following buffers were used for the Qube® recordings: External buffer for NaV1.8 Qube® recording: 150 NaCl, 2 CaCl2, 5 KCl, 1 Mg Cl2, 10 HEPES, 12 Dextrose; External buffer for Qube® NaV1.5 recording: 120 N-Methyl-D-Glucamine, 40 NaCl, 1 KCl, 2.7 CaCl2, 5 HEPES, 0.5 MgCl2; and Internal buffer for Qube® recording: 120 CsF, 30 CsCl, 10 EGTA, 5 HEPES, 5 NaF, 2 MgCl2.
For all Qube® experiments offline analysis was used to determine percent inhibition as a function of drug concentration. IC50 values were determined by fitting to the Hill equation.

T1 sequence (Q9Y5Y9 whole entry): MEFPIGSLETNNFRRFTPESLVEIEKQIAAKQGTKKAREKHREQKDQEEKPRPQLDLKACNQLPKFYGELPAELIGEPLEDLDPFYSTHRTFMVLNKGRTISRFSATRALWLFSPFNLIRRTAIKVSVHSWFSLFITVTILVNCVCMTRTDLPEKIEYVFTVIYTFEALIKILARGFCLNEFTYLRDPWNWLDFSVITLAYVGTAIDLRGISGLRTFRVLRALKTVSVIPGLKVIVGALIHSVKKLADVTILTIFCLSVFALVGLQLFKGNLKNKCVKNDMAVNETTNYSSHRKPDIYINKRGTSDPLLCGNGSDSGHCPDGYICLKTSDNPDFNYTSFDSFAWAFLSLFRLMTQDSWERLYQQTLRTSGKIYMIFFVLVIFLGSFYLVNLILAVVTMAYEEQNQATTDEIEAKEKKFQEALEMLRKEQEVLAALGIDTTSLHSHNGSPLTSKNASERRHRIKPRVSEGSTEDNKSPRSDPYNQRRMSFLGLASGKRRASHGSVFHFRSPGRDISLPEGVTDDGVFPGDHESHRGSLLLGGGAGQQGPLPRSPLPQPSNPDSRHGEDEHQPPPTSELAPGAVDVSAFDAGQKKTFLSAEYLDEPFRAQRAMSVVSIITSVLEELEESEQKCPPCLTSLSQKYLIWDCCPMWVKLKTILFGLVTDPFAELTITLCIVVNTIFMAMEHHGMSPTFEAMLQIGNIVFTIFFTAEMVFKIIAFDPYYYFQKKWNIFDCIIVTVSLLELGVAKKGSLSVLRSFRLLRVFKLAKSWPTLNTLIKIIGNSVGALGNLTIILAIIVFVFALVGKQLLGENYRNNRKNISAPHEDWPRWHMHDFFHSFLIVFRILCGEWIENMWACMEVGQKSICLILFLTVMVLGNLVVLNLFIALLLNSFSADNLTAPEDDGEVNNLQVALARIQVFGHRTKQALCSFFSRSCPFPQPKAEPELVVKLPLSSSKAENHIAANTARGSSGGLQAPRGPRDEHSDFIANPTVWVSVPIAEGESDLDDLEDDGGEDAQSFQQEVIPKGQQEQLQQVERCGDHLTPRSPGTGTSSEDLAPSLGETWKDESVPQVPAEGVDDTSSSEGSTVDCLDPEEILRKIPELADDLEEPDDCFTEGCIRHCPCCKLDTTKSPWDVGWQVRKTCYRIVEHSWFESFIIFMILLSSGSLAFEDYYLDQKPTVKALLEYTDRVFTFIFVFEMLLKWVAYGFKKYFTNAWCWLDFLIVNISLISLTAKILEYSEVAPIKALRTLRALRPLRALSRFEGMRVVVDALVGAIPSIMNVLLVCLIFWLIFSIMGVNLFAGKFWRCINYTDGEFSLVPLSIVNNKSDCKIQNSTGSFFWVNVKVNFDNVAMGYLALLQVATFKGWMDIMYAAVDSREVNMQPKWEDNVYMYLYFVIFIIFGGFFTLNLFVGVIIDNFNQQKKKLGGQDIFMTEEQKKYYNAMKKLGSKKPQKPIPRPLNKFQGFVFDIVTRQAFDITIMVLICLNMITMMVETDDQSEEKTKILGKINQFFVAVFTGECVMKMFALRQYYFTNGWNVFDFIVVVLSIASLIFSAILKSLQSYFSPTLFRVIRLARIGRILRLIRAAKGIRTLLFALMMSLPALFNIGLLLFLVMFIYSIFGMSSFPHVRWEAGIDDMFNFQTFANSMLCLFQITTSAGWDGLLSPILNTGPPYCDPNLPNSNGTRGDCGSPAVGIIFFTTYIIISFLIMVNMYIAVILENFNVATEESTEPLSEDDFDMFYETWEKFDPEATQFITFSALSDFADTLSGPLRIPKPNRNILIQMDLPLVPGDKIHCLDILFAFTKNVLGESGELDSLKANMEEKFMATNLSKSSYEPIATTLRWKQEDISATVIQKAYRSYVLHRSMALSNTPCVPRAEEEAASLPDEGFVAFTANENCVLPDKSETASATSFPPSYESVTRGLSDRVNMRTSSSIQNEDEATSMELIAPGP

Row | IC50 [nM] | SMILES
1 | 2630 | C[C@@H]1C(=O)NCCN1C(=O)NC(c1ccc(F)c(Cl)c1F)C1CC(F)(F)C1 (single isomer, unassigned) [Example 24A, (2R)-N-((R or S)-(3-chloro-2,4-difluoro-phenyl)(3,3-difluoro-cyclobutyl)methyl)-2-methyl-3-oxopiperazine-1-carboxamide]
2 | 29.1 | C[C@@H]1C(=O)NCCN1C(=O)NC(c1ccc(F)c(Cl)c1F)C1CC(F)(F)C1 (single isomer, unassigned) [Example 24B, (2R)-N-((S or R)-(3-chloro-2,4-difluoro-phenyl)(3,3-difluoro-cyclobutyl)methyl)-2-methyl-3-oxopiperazine-1-carboxamide]
3 | 10.4 | C=C1CC(C(NC(=O)N2CCNC(=O)[C@H]2C)c2ccc(F)c(Cl)c2F)C1 (single isomer, unassigned) [Example 25A, (2R)-N-((R or S)-(3-chloro-2,4-difluoro-phenyl)(3-methylene-cyclobutyl)methyl)-2-methyl-3-oxopiperazine-1-carboxamide]
4 | 652 | C=C1CC(C(NC(=O)N2CCNC(=O)[C@H]2C)c2ccc(F)c(Cl)c2F)C1 (single isomer, unassigned) [Example 25B, (2R)-N-((S or R)-(3-chloro-2,4-difluoro-phenyl)(3-methylene-scyclobutyl)methyl)-2-methyl-3-oxopiperazine-1-carboxamide]
5 | 0.8 | O=C1NCCN(C(=O)N[C@H](c2ccc(F)c(Cl)c2F)[C@H]2C[C@H](C(F)(F)F)C2)C1C1CC1 (single isomer, unassigned) [Example 27A, (R or S)—N—((S)-(3-chloro-2,4-difluorophenyl)(trans-3-(trifluoromethyl)cyclobutyl)methyl)-2-cyclopropyl-3-oxopiperazine-1-carboxamide]
6 | 107 | O=C1NCCN(C(=O)N[C@H](c2ccc(F)c(Cl)c2F)[C@H]2C[C@H](C(F)(F)F)C2)C1C1CC1 (single isomer, unassigned) [Example 27B, (S or R)—N—((S)-(3-chloro-2,4-difluorophenyl)(trans-3-(trifluoromethyl)cyclobutyl)methyl)-2-cyclopropyl-3-oxopiperazine-1-carboxamide]
7 | 2.65 | C[C@@H]1C(=O)NCCN1C(=O)NC(c1ccc(F)c(Cl)c1F)C1CC2(CC2)C1 (single isomer, unassigned) [Example 28A, (2R)—N—((R or S)-(3-chloro-2,4-difluorophenyl)(spiro[2.3]hexan-5-yl)methyl)-2-methyl-3-oxopiperazine-1-carboxamide]
8 | 191 | C[C@@H]1C(=O)NCCN1C(=O)NC(c1ccc(F)c(Cl)c1F)C1CC2(CC2)C1 (single isomer, unassigned) [Example 28B, (2R)—N—((S or R)-(3-chloro-2,4-difluorophenyl)(spiro[2.3]hexan-5-yl)methyl)-2-methyl-3-oxopiperazine-1-carboxamide]
9 | 8.91 | C[C@@H]1C(=O)NCCN1C(=O)NC(c1ccc(F)c(Cl)c1F)[C@H]1C[C@H](C(F)F)C1 (single isomer, unassigned) [Example 29A]
10 | 66.5 | C[C@@H]1C(=O)NCCN1C(=O)NC(c1ccc(F)c(Cl)c1F)[C@H]1C[C@H](C(F)F)C1 (single isomer, unassigned) [Example 29B]
11 | 281 | C[C@@H]1C(=O)NCCN1C(=O)NC(c1ccc(F)c(Cl)c1F)C12CC(C(F)(F)F)(C1)C2 (single isomer, unassigned) [Example 30A]
12 | 3.12 | C[C@@H]1C(=O)NCCN1C(=O)NC(c1ccc(F)c(Cl)c1F)C12CC(C(F)(F)F)(C1)C2 (single isomer, unassigned) [Example 30B]
13 | 0.74 | C[C@@H]1C(=O)NCCN1C(=O)NC(c1ccc(F)c(Cl)c1F)C1CC(C)(C)C1 (single isomer, unassigned) [Example 31A, (2R)-N-((R or S)-(3-chloro-2,4-difluoro-phenyl)(3,3-dimethyl-cyclobutyl)methyl)-2-methyl-3-oxopiperazine-1-carboxamide]
14 | 71 | C[C@@H]1C(=O)NCCN1C(=O)NC(c1ccc(F)c(Cl)c1F)C1CC(C)(C)C1 (single isomer, unassigned) [Example 31B, (2R)-N-((S or R)-(3-chloro-2,4-difluoro-phenyl)(3,3-dimethyl-cyclobutyl)methyl)-2-methyl-3-oxopiperazine-1-carboxamide]
15 | 135 | C[C@@H]1C(=O)NCCN1C(=O)NC(c1ccc(C(F)(F)F)nc1)C1CC(C)(C)C1 (single isomer, unassigned) [Example 33A, (2R)-N-((R or S)-(3,3-dimethylcyclobutyl)(6-(trifluoromethyl)pyridin-3-yl)methyl)-2-methyl-3-oxopiperazine-1-carboxamide]
16 | 3590 | C[C@@H]1C(=O)NCCN1C(=O)NC(c1ccc(C(F)(F)F)nc1)C1CC(C)(C)C1 (single isomer, unassigned) [Example 33B, (2R)-N-((S or R)-(3,3-dimethylcyclobutyl)(6-(trifluoromethyl)pyridin-3-yl)methyl)-2-methyl-3-oxopiperazine-1-carboxamide]
17 | 601 | O=C1CN(C(=O)NC(c2ccc(F)c(Cl)c2)C23CC(C(F)(F)F)(C2)C3)CCN1 (single isomer, unassigned) [Example 34A, N-((R or S)-(3-chloro-4-fluorophenyl)(3-(trifluoromethyl)bicyclo [1.1.1]pentan-1-yl)methyl)-3-oxopiperazine-1-carboxamide]
18 | 47.1 | O=C1CN(C(=O)NC(c2ccc(F)c(Cl)c2)C23CC(C(F)(F)F)(C2)C3)CCN1 (single isomer, unassigned) [Example 34B, N-((S or R)-(3-chloro-4-fluorophenyl)(3-(trifluoromethyl)bicyclo [1.1.1]pentan-1-yl)methyl)-3-oxopiperazine-1-carboxamide]
19 | 6.08 | C[C@@H]1C(=O)NCCN1C(=O)NC(c1ccc(F)c(Cl)c1)C12CC(C(F)(F)F)(C1)C2 (single isomer, unassigned) [Example 35A, (2R)-N-((R or S)-(3-chloro-4-fluoro-phenyl)(3-(trifluoro-methyl)bicyclo[1.1.1]pen-tan-1-yl)methyl)-2-methyl-3-oxopiperazine-1-carboxamide]
20 | 48.6 | C[C@@H]1C(=O)NCCN1C(=O)NC(c1ccc(F)c(Cl)c1)C12CC(C(F)(F)F)(C1)C2 (single isomer, unassigned) [Example 35B, (2R)-N-((S or R)-(3-chloro-4-fluoro-phenyl)(3-(trifluoro-methyl)bicyclo[1.1.1]pen-tan-1-yl)methyl)-2-methyl-3-oxopiperazine-1-carboxamide]
21 | 55.7 | Cc1cc(C(NC(=O)N2CCNC(=O)[C@H]2C)C2CCC(C(F)(F)F)CC2)ccc1F (single isomer, unassigned) [Example 36A]
22 | 74.6 | Cc1cc(C(NC(=O)N2CCNC(=O)[C@H]2C)C2CCC(C(F)(F)F)CC2)ccc1F (single isomer, unassigned) [Example 36B]
23 | 58.1 | Cc1cc(C(NC(=O)N2CCNC(=O)[C@H]2C)C2CCC(C(F)(F)F)CC2)ccc1F (single isomer, unassigned) [Example 36C]
24 | 3.99 | Cc1cc(C(NC(=O)N2CCNC(=O)[C@H]2C)C2CCC(C(F)(F)F)CC2)ccc1F (single isomer, unassigned) [Example 36D]
25 | 108 | C[C@@H]1C(=O)NCCN1C(=O)NC(c1ccc(Cl)c(C(F)F)c1)C1CCC(C(F)(F)F)CC1 (single isomer, unassigned) [Example 37A, (2R)-N-((R or S)-(4-chloro-3-(difluoro-methyl)phenyl)(cis-4-(trifluoromethyl)cyclohexyl)methyl)-2-methyl-3-oxopiperazine-1-carboxamide]
26 | 145 | C[C@@H]1C(=O)NCCN1C(=O)NC(c1ccc(Cl)c(C(F)F)c1)C1CCC(C(F)(F)F)CC1 (single isomer, unassigned) [Example 37B, (2R)-N-((R or S)-(4-chloro-3-(difluoro-methyl)phenyl)(trans-4-(trifluoromethyl)cyclohexyl)methyl)-2-methyl-3-oxopiperazine-1-carboxamide]
27 | 27.2 | C[C@@H]1C(=O)NCCN1C(=O)NC(c1ccc(Cl)c(C(F)F)c1)C1CCC(C(F)(F)F)CC1 (single isomer, unassigned) [Example 37C, (2R)-N-((S or R)-(4-chloro-3-(difluoro-methyl)phenyl)(cis-4-(trifluoromethyl)cyclohexyl)methyl)-2-methyl-3-oxopiperazine-1-carboxamide]
